Laboratory results: US20260007133A1, “HERBICIDAL COMPOSITION COMPRISING AZINE COMPOUNDS” (BASF SE, priority 2022, published 2026)

Tests used:
Format in all cases: in vivo
Digitaria sanguinalis = assay: Greenhouse post-emergence (POST) herbicidal test on DIGSA; details: Digitaria sanguinalis, post-emergence, 480 h, read-out: solo application % activity
Procedure, shortened: (§1)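 For this test, compounds formulated as a 5% by weight emulsion concentrate were diluted into spray liquor and applied post-emergence. Species were kept at 10-25° C or 20-35° C and injury was scored at 20 DAT on a 0–100 scale.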

Ipomoea hederacea = assay: Greenhouse post-emergence (POST) herbicidal test on IPOHE; details: Ipomoea hederacea, post-emergence, 480 h, read-out: solo application % activity
Description: (§2) The culture containers used were plastic pots containing loamy sand with approximately 3.0% of humus as substrate. The seeds of the test plants were sown separately for each species.
(§3) For the post-emergence treatment, the test plants were grown to a plant height of from 3 to 15 cm, depending on the plant habit, and only then treated with the active compounds which had been suspended or emulsified in water. To this end, the test plants were either sown directly, and grown in the same containers, or they were first grown separately as seedlings and transplanted into the test containers a few days prior to treatment.
(§4) Depending on the species, the plants were kept at 10-25° C. and 20-35° C., respectively.
(§5) The test period extended over 2 to 4 weeks. During this time, the plants were tended and their response to the individual treatments was evaluated.
(§6) Evaluation was carried out using a scale from 0 to 100. 100 means no emergence of the plants, or complete destruction of at least the above-ground parts, and 0 means no damage or normal course of growth. A good herbicidal activity is given at values of at least 70, and very good herbicidal activity is given at values of at least 85.
(§7) If not stated differently, the respective components A and B, and if appropriate, C were formulated as a 5% by weight strength emulsion concentrate and, with addition of the amount of solvent system, introduced into the spray liquor used for applying the active compound.
As indicated application was either post emergent (POST) at the respective growth stage (GS) of the weed (BBCH code), or pre-emergent (PRE).
Assessment was 20 days after treatment (DAT).

Setaria viridis = assay: Greenhouse pre-emergence (PRE) herbicidal test on SETVI; details: Setaria viridis, pre-emergence, 480 h, read-out: solo application % activity
From the text: as §2
For the pre-emergence treatment, the active compounds, suspended or emulsified in water, were applied directly after sowing by means of finely distributing nozzles. The containers were irrigated gently to promote germination and growth and subsequently covered with transparent plastic hoods until the plants had rooted. This cover caused uniform germination of the test plants unless this was adversely affected by the active compounds.
as §4, §5, §6, §7
(§8) As indicated application was either post emergent (POST) at the respective growth stage (GS) of the weed (BBCH code), or pre-emergent (PRE). […]

Euphorbia heterophylla [1] = assay: Greenhouse pre-emergence (PRE) herbicidal test on EPHHL; details: Euphorbia heterophylla, pre-emergence, 480 h, read-out: solo application % activity
Procedure, shortened: (§9)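 Visual 0–100 rating at 20 days after treatment; 0 = normal growth, 100 = no emergence or complete kill of shoots. Pre-emergent application to seeded pots of loamy sand (~3.0% humus), species-dependent temperature 10-25° C or 20-35° C.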

Abutilon theophrasti [2] = assay: Greenhouse post-emergence (POST) herbicidal test on ABUTH; details: Abutilon theophrasti, post-emergence, 480 h, read-out: solo application % activity
Procedure, shortened: as §1

Geranium pusillum = assay: Greenhouse post-emergence (POST) herbicidal test on GERPU; details: Geranium pusillum, post-emergence, 480 h, read-out: solo application % activity
Procedure, shortened: as §1

Commelina benghalensis = assay: Greenhouse pre-emergence (PRE) herbicidal test on COMBE
Procedure, shortened: as §9

Amaranthus retroflexus [3] = assay: Greenhouse post-emergence (POST) herbicidal test on AMARE; details: Amaranthus retroflexus, post-emergence, 480 h, read-out: solo application % activity
Description: as §2, §3, §4, §5, §6, §7, §8

Lolium multiflorum = assay: Greenhouse pre-emergence (PRE) herbicidal test on LOLMU; details: Lolium multiflorum, pre-emergence, 480 h, read-out: solo application % activity
Procedure, shortened: as §9

Echinochloa crus-galli = assay: Greenhouse post-emergence (POST) herbicidal test on ECHCG; details: Echinochloa crus-galli, post-emergence, 480 h, read-out: solo application % activity
Procedure, shortened: as §1

Abutilon theophrasti [4] = assay: Greenhouse pre-emergence (PRE) herbicidal test on ABUTH; details: Abutilon theophrasti, pre-emergence, 480 h, read-out: solo application % activity
Procedure, shortened: as §9

Euphorbia heterophylla [5] = assay: Greenhouse post-emergence (POST) herbicidal test on EPHHL; details: Euphorbia heterophylla, post-emergence, 480 h, read-out: solo application % activity
Procedure, shortened: as §1

Alopecurus myosuroides = assay: Greenhouse pre-emergence (PRE) herbicidal test on ALOMY; details: Alopecurus myosuroides, pre-emergence, 480 h, read-out: solo application % activity
Procedure, shortened: as §9

Ambrosia artemisiifolia = assay: Greenhouse pre-emergence (PRE) herbicidal test on AMBEL; details: for % activity: AMBEL PRE
Amaranthus retroflexus [6] = assay: Greenhouse pre-emergence (PRE) herbicidal test on AMARE; details: AMARE PRE, use rate 5 gai/ha
Description: as §2
The containers were irrigated gently to promote germination and growth and subsequently covered with transparent plastic hoods until the plants had rooted.
as §4, §5, §6, §8

[7] = Commelina benghalensis, pre-emergence, 480 h, read-out: solo application % activity
[8] = Ambrosia artemisiifolia, pre-emergence, 480 h, read-out: solo application % activity

`CCSC(C)CC1CC(=O)C(/C(CC)=N/OC/C=C/Cl)=C(O)C1` (stereo not shown) [Clethodim, clethodim] showed an inhibition at 10 g/ha (Digitaria sanguinalis) of 80%, an inhibition at 5 g/ha (Ipomoea hederacea) of 0% and an inhibition at 5 g/ha (Setaria viridis) of 25%. The inhibition at 5 g/ha (Euphorbia heterophylla [1]) was 0%, the inhibition at 10 g/ha (Euphorbia heterophylla [1]) was 0% and the inhibition at 10 g/ha (Abutilon theophrasti [2]) was 0%. It also gave an inhibition at 5 g/ha (Geranium pusillum) of 0%, an inhibition at 10 g/ha (Geranium pusillum) of 0% and an inhibition at 5 g/ha (Commelina benghalensis; [7]) of 0%. It also gave an inhibition at 10 g/ha (Commelina benghalensis; [7]) of 0%, an inhibition at 5 g/ha (Amaranthus retroflexus [3]) of 0% and an inhibition at 10 g/ha (Amaranthus retroflexus [3]) of 0%. It also gave an inhibition at 5 g/ha (Lolium multiflorum) of 60%, an inhibition at 5 g/ha (Echinochloa crus-galli) of 80% and an inhibition at 5 g/ha (Abutilon theophrasti [4]) of 0%. For the same compound, the inhibition at 5 g/ha (Euphorbia heterophylla [5]) was 0%, the inhibition at 10 g/ha (Euphorbia heterophylla [5]) was 0% and the inhibition at 5 g/ha (Alopecurus myosuroides) was 60%. For the same compound, the inhibition at 10 g/ha (Alopecurus myosuroides) was 75%, the inhibition at 5 g/ha (Ambrosia artemisiifolia; [8]) was 0% and the inhibition at 10 g/ha (Ambrosia artemisiifolia; [8]) was 0%.
`COc1c(Cl)ccc(-c2nc(C(=O)OCc3ccccc3)c(Cl)c(N)c2F)c1F` [Florpyrauxifen-Benzyl, florpyrauxifen-benzyl] was tested, and the “% activity” value (Commelina benghalensis; COMBE PRE, use rate 5 gai/ha) was 45%, the “% activity” value (Amaranthus retroflexus [6]) was 0% and the “% activity” value (Ambrosia artemisiifolia; use rate 1.25 gai/ha) was 30%. For the same compound, the “% activity” value (Ambrosia artemisiifolia; use rate 5 gai/ha) was 45%.
